The values below come from PMC3893156 (Molecular Genetics & Genomic Medicine, 2013).

In assay [1] the target is T1, Phosphomannomutase 2 (wt-PMM2) (Homo sapiens, UniProt O15305).
T1 sequence (O15305 1-246): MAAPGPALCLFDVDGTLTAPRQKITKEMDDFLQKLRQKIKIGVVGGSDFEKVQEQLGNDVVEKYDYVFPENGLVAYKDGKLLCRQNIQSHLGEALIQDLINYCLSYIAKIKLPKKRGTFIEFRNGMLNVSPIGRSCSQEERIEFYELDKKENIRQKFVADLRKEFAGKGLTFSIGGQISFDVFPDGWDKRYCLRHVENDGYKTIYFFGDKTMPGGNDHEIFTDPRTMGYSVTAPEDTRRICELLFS
The assay is described as follows: thermal shift, size exclusion chromatography. Format: binding.

Assay [2] addresses T1, Phosphomannomutase 2 (wt-PMM2). The assay is described as follows: thermal shift assay. Format: binding.
For assay [3] the target is unchanged. Kind of assay: activation of purified enzyme. The assay is classed as biochemical.
The target of assay [4] is T2, Phosphomannomutase 2 (F119L-PMM2) (Homo sapiens, UniProt O15305, F119L).
T2 sequence (O15305 1-246 F119L): T1 sequence (O15305 1-246) with F119L
Kind of assay: activation of purified enzyme. The assay is classed as biochemical.

Usually EC50 stands for the midpoint of the concentration-response curve. High values mean weaker potency, low ones greater potency.

Numbering of substitutions follows the chain as printed.

As to `O=P(O)(O)OC[C@H]1OC(O)[C@H](O)[C@@H](O)[C@@H]1O` (stereo partly drawn) [Glc-6-P, D-glucose 6-phosphate], the “thermal shift, size exclusion chromatography (dimer stabilization)” value in assay [1] was “Glc-1-P and Glc-6-P produce a small, but statistically significant increase of the midpoint temperature”. Regarding `O=P(O)(O)OC[C@H]1O[C@H](OP(=O)(O)O)[C@@H](O)[C@@H](O)[C@@H]1O` [Man-1,6-P2, mannose 1,6-bisphosphate], in assay [2], the thermal shift assay result is given as “Glc-1,6-P2 is slightly more effective than Man-1,6-P2 (Table S1)”. Turning to `O=P(O)(O)OC[C@H]1O[C@H](OP(=O)(O)O)[C@H](O)[C@@H](O)[C@@H]1O` [Glc-1,6-P2, glucose-1,6-bisphosphate], the values for the EC50 in assay [3] and in assay [4] were 10 µM and 36 µM, respectively.
